Data reported in patent US20240226072A1 (Stichting Het Nederlands Kanker Instituut, priority 2022, published 2024).
Read-outs that look alike come from different tables or passages of the source.

Assay: Plasma pharmacokinetics and tissue distribution 2 h after oral cabazitaxel 10 mg/kg with vehicle or 25 mg/kg ritonavir in wild-type, Oatp1a/1b−/−, Oatp1a/1b/2b1−/−, OATP1B1- and OATP1B3-transgenic mice
Assay type: in vivo
Details: for CLiver / Cbrain / Pbrain, brain accumulation per h / SIC (% of dose), small intestinal content / Kp at 2 h: 2 h; for enhancement of AUC0-2h by ritonavir: ritonavir 25 mg/kg compared to respective vehicle group; for AUC(0-t) / Kp at 2 h / Cmax / Tmax: male, FVB, mouse; for AUC(0-t) / Cmax / Tmax: plasma; for AUC(0-t): read-out: AUC0-2 h
Procedure: All animals were fasted 2 to 3 hours prior to the start of the experiment to minimize variation in absorption after oral administration. […] Subsequently, cardiac puncture was performed with a heparinized needle and syringe collecting a final blood sample. […] All samples were stored at −30° C. until analysis.
Differences were considered statistically significant when P<0.05. All data are presented as geometric mean±SD.

[1] = OATP1B1-transgenic mice, ritonavir 25 mg/kg oral, cabazitaxel 10 mg/kg oral
[2] = OATP1B1-transgenic mice, vehicle, cabazitaxel 10 mg/kg oral
[3] = OATP1B3-transgenic mice, ritonavir 25 mg/kg oral, cabazitaxel 10 mg/kg oral
[4] = OATP1B3-transgenic mice, vehicle, cabazitaxel 10 mg/kg oral
[5] = Oatp1a/1b/2b1−/− mice, ritonavir 25 mg/kg oral, cabazitaxel 10 mg/kg oral
[6] = Oatp1a/1b/2b1−/− mice, vehicle, cabazitaxel 10 mg/kg oral
[7] = Oatp1a/1b−/− mice, ritonavir 25 mg/kg oral, cabazitaxel 10 mg/kg oral
[8] = Oatp1a/1b−/− mice, vehicle, cabazitaxel 10 mg/kg oral
[9] = po, 10 mg/kg, OATP1B1-transgenic mice, ritonavir 25 mg/kg oral, cabazitaxel 10 mg/kg oral
[10] = po, 10 mg/kg, OATP1B1-transgenic mice, vehicle pretreatment, oral 10 mg/kg cabazitaxel
[11] = po, 10 mg/kg, OATP1B1-transgenic mice, vehicle, cabazitaxel 10 mg/kg oral

Structure (SMILES): CO[C@H]1C(=O)[C@]2(C)[C@@H](OC)C[C@H]3OC[C@@]3(OC(C)=O)[C@H]2[C@H](OC(=O)c2ccccc2)[C@]2(O)C[C@H](OC(=O)[C@H](O)[C@@H](NC(=O)OC(C)(C)C)c3ccccc3)C(C)=C1C2(C)C [cabazitaxel]
- CLiver [1]: 22966 pmol/g
- Cbrain [1]: 275 pmol/g
- Pbrain, brain accumulation per h [1]: 0.031 h⁻¹
- SIC (% of dose), small intestinal content [1]: 1.93 % of dose
- CLiver [2]: 3150 pmol/g
- Cbrain [2]: 59.0 pmol/g
- Pbrain, brain accumulation per h [2]: 0.014 h⁻¹
- SIC (% of dose), small intestinal content [2]: 1.43 % of dose
- CLiver [3]: 21217 pmol/g
- Cbrain [3]: 245 pmol/g
- Pbrain, brain accumulation per h [3]: 0.032 h⁻¹
- SIC (% of dose), small intestinal content [3]: 1.06 % of dose
- CLiver [4]: 2777 pmol/g
- Cbrain [4]: 55.8 pmol/g
- Pbrain, brain accumulation per h [4]: 0.014 h⁻¹
- SIC (% of dose), small intestinal content [4]: 1.00 % of dose
- enhancement of AUC0-2h by ritonavir (Oatp1a/1b/2b1−/− mice): 2.4 fold
- CLiver [5]: 21464 pmol/g
- Cbrain [5]: 262 pmol/g
- Pbrain, brain accumulation per h [5]: 0.029 h⁻¹
- SIC (% of dose), small intestinal content [5]: 1.67 % of dose
- CLiver [6]: 2979 pmol/g
- Cbrain [6]: 49.4 pmol/g
- Pbrain, brain accumulation per h [6]: 0.013 h⁻¹
- SIC (% of dose), small intestinal content [6]: 2.22 % of dose
- enhancement of AUC0-2h by ritonavir (Oatp1a/1b−/− mice): 3.0 fold
- CLiver [7]: 20747 pmol/g
- Cbrain [7]: 323 pmol/g
- Pbrain, brain accumulation per h [7]: 0.035 h⁻¹
- SIC (% of dose), small intestinal content [7]: 0.91 % of dose
- CLiver [8]: 2758 pmol/g
- Cbrain [8]: 45.2 pmol/g
- Pbrain, brain accumulation per h [8]: 0.014 h⁻¹
- SIC (% of dose), small intestinal content [8]: 0.32 % of dose
- AUC(0-t) (OATP1B1-transgenic (Oatp1a/1b−/− background), po, 10 mg/kg, OATP1B1-transgenic mice, ritonavir 25 mg/kg oral, cabazitaxel 10 mg/kg oral): 7.91 µM·h
- AUC(0-t) (OATP1B1-transgenic (Oatp1a/1b−/− background), po, 10 mg/kg, OATP1B1-transgenic mice, vehicle, cabazitaxel 10 mg/kg oral): 3.7 µM·h
- AUC(0-t) (OATP1B3-transgenic (Oatp1a/1b−/− background), po, 10 mg/kg, OATP1B3-transgenic mice, ritonavir 25 mg/kg oral, cabazitaxel 10 mg/kg oral): 6.57 µM·h
- AUC(0-t) (OATP1B3-transgenic (Oatp1a/1b−/− background), po, 10 mg/kg, OATP1B3-transgenic mice, vehicle, cabazitaxel 10 mg/kg oral): 3.51 µM·h
- AUC(0-t) (Oatp1a/1b/2b1−/−, po, 10 mg/kg, Oatp1a/1b/2b1−/− mice, ritonavir 25 mg/kg oral, cabazitaxel 10 mg/kg oral): 6.8 µM·h
- AUC(0-t) (Oatp1a/1b/2b1−/−, po, 10 mg/kg, Oatp1a/1b/2b1−/− mice, vehicle, cabazitaxel 10 mg/kg oral): 2.88 µM·h
- AUC(0-t) (Oatp1a/1b−/−, po, 10 mg/kg, Oatp1a/1b−/− mice, ritonavir 25 mg/kg oral, cabazitaxel 10 mg/kg oral): 7.89 µM·h
- AUC(0-t) (Oatp1a/1b−/−, po, 10 mg/kg, Oatp1a/1b−/− mice, vehicle, cabazitaxel 10 mg/kg oral): 2.62 µM·h
- Kp at 2 h (brain/plasma, po, 10 mg/kg, OATP1B1-transgenic mice, vehicle, cabazitaxel 10 mg/kg oral, read-out: Brain-to-plasma ratio): 0.054
- Kp at 2 h (brain/plasma, po, 10 mg/kg, OATP1B3-transgenic mice, vehicle, cabazitaxel 10 mg/kg oral, read-out: Brain-to-plasma ratio): 0.067
- Kp at 2 h (brain/plasma, po, 10 mg/kg, Oatp1a/1b/2b1−/− mice, vehicle, cabazitaxel 10 mg/kg oral, read-out: Brain-to-plasma ratio): 0.064
- Kp at 2 h (brain/plasma, po, 10 mg/kg, Oatp1a/1b−/− mice, vehicle, cabazitaxel 10 mg/kg oral, read-out: Brain-to-plasma ratio): 0.064
- Kp at 2 h (brain/plasma, po, 10 mg/kg, wild-type mice, vehicle, cabazitaxel 10 mg/kg oral, read-out: Brain-to-plasma ratio): 0.069
- Kp at 2 h (brain/plasma, po, OATP1B1-transgenic mice, ritonavir 25 mg/kg oral, cabazitaxel 10 mg/kg oral, read-out: Brain-to-plasma ratio): 0.045
- Kp at 2 h (brain/plasma, po, OATP1B3-transgenic mice, ritonavir 25 mg/kg oral, cabazitaxel 10 mg/kg oral, read-out: Brain-to-plasma ratio): 0.046
- Kp at 2 h (brain/plasma, po, Oatp1a/1b/2b1−/− mice, ritonavir 25 mg/kg oral, cabazitaxel 10 mg/kg oral, read-out: Brain-to-plasma ratio): 0.047
- Kp at 2 h (brain/plasma, po, Oatp1a/1b−/− mice, ritonavir 25 mg/kg oral, cabazitaxel 10 mg/kg oral, read-out: Brain-to-plasma ratio): 0.055
- Kp at 2 h (brain/plasma, po, wild-type mice, ritonavir 25 mg/kg oral, cabazitaxel 10 mg/kg oral, read-out: Brain-to-plasma ratio): 0.036
- Kp at 2 h (liver, oral, 10 mg/kg, OATP1B1-transgenic mice, vehicle, cabazitaxel 10 mg/kg oral, read-out: Liver-to-plasma ratio): 3.1
- Kp at 2 h (liver, oral, 10 mg/kg, OATP1B3-transgenic mice, vehicle, cabazitaxel 10 mg/kg oral, read-out: Liver-to-plasma ratio): 3.61
- Kp at 2 h (liver, oral, 10 mg/kg, Oatp1a/1b/2b1−/− mice, vehicle, cabazitaxel 10 mg/kg oral, read-out: Liver-to-plasma ratio): 3.84
- Kp at 2 h (liver, oral, 10 mg/kg, Oatp1a/1b−/− mice, vehicle, cabazitaxel 10 mg/kg oral, read-out: Liver-to-plasma ratio): 3.95
- Kp at 2 h (liver, oral, 10 mg/kg, wild-type mice, vehicle, cabazitaxel 10 mg/kg oral, read-out: Liver-to-plasma ratio): 3.93
- Kp at 2 h (liver, oral, OATP1B1-transgenic mice, ritonavir 25 mg/kg oral, cabazitaxel 10 mg/kg oral, read-out: Liver-to-plasma ratio): 3.84
- Kp at 2 h (liver, oral, OATP1B3-transgenic mice, ritonavir 25 mg/kg oral, cabazitaxel 10 mg/kg oral, read-out: Liver-to-plasma ratio): 4.15
- Kp at 2 h (liver, oral, Oatp1a/1b/2b1−/− mice, ritonavir 25 mg/kg oral, cabazitaxel 10 mg/kg oral, read-out: Liver-to-plasma ratio): 3.95
- Kp at 2 h (liver, oral, Oatp1a/1b−/− mice, ritonavir 25 mg/kg oral, cabazitaxel 10 mg/kg oral, read-out: Liver-to-plasma ratio): 3.62
- Kp at 2 h (liver, oral, wild-type mice, ritonavir 25 mg/kg oral, cabazitaxel 10 mg/kg oral, read-out: Liver-to-plasma ratio): 3.32
- Cmax [9]: 4670 nM
- Tmax [9]: 65 min
- Cmax [10]: 2730 ± 855 nM
- Tmax [10]: 27.5 min
- AUC(0-t) (po, 10 mg/kg, OATP1B1-transgenic mice, vehicle pretreatment, oral 10 mg/kg cabazitaxel, 0-2 h): 3.7 ± 1.23 µM·h
- Cmax [11]: 2730 nM
- Tmax [11]: 27.5 min
